US20060089375A1, “Pyrazolo[3,4-b] pyridine compounds, and their use as phosphodiesterase inhibitors” (priority 2002, published 2006)

How the values were obtained:
[1] = target: T1, PDE4B (human recombinant) (Homo sapiens, UniProt Q07343); test: Inhibition of PDE4B activity: radioactive SPA or IMAP Fluorescence Polarisation (FP) assay; format: biochemical; settings: PDE4B inhibitory activity, one reading or average of ca. 2-6 readings, read-out: PDE4B pIC50 (± about 0.5) (converted)
T1 construct: made in house
From the text: Human recombinant PDE4B, in particular the 2B splice variant thereof (HSPDE4B2B), is disclosed in WO 94/20079 and also M. M. McLaughlin et al., “A low Km, rolipram-sensitive, cAMP-specific phosphodiesterase from human brain: cloning and expression of cDNA, biochemical characterisation of recombinant protein, and tissue distribution of mRNA”, J. Biol. Chem., 1993, 268, 6470-6476. For example, in Example 1 of WO 94/20079, human recombinant PDE4B is described as being expressed in the PDE-deficient yeast Saccharomyces cerevisiae strain GL62, e.g. after induction by addition of 150 uM CuSO4, and 100,000×g supernatant fractions of yeast cell lysates are described for use in the harvesting of PDE4B enzyme.
The ability of compounds to inhibit catalytic activity at PDE4B or 4D (human recombinant), PDE3 (from bovine aorta), PDE5 (human recombinant) or PDE6 (from bovine retina) was determined by Scintillation Proximity Assay (SPA) in 96-well format. Test compounds (preferably as a solution in DMSO, e.g. 0.5 to 1 microlitre (ul) volume) were preincubated at ambient temperature (room temperature, e.g. 19-23° C.) in Wallac Isoplates (code 1450-514) with PDE enzyme in 50 mM Tris-HCl buffer pH 7.5, 8.3 mM MgCl2, 1.7 mM EGTA, 0.05% (w/v) bovine serum albumin for 10-30 minutes (usually 30 minutes). The enzyme concentration was adjusted so that no more than 20% hydrolysis of the substrate defined below occurred in control wells without compound, during the incubation. For the PDE3, PDE4B and PDE4D assays, [5′,8-^3H]Adenosine 3′,5′-cyclic phosphate (Amersham Pharmacia Biotech, code TRK.559; or Amersham Biosciences UK Ltd, Pollards Wood, Chalfont St Giles, Buckinghamshire HP8 4SP, UK) was added to give 0.05 uCi per well and ˜10 nM final concentration. For the PDE5 and PDE6 assays, [8-^3H]Guanosine 3′,5′-cyclic phosphate (Amersham Pharmacia Biotech, code TRK.392) was added to give 0.05 uCi per well and ˜36 nM final concentration. Plates, e.g. containing approx. 100 ul volume of assay mixture, were mixed on an orbital shaker for 5 minutes and incubated at ambient temperature for 1 hour. Phosphodiesterase SPA beads (Amersham Pharmacia Biotech, code RPNQ 0150) were added ([…] per well) to terminate the assay. Plates were sealed and shaken and allowed to stand at ambient temperature for 35 minutes to 1 hour (preferably 35 minutes) to allow the beads to settle. Bound radioactive product was measured using a WALLAC TRILUX 1450 Microbeta scintillation counter. For inhibition curves, 10 concentrations (1.5 nM-30 uM) of each compound were assayed. Curves were analysed using ActivityBase and XLfit (ID. Business Solutions Limited, 2 Ocean Court, Surrey Research Park, Guildford, Surrey GU2 7QB, United Kindgom) Results were expressed as pIC50 values.
The ability of compounds to inhibit catalytic activity at PDE4B (human recombinant) or PDE4D (human recombinant) was determined by IMAP Fluorescence Polarisation ([…]) assay (IMAP Explorer kit, available from Molecular Devices Corporation, Sunnydale, Calif., USA; Molecular Devices code: R^8062) in 384-well format. The IMAP FP assay is able to measure PDE activity in an homogenous, non-radioactive assay format. The FP assay uses the ability of immobilised trivalent metal cations, coated onto nanoparticles (tiny beads), to bind the phosphate group of Fl-AMP that is produced on the hydrolysis of fluorescein-labelled (Fl) cyclic adenosine mono-phosphate (Fl-cAMP) to the non-cyclic Fl-AMP form. […] Binding of Fl-AMP product to the beads (coated with the immobilised trivalent cations) slows the rotation of the bound Fl-AMP and leads to an increase in the fluorescence polarisation ratio of parallel to perpendicular light. Inhibition of the PDE reduces/inhibits this signal increase. […]

[2] = Particle size analysis of micronised material by laser diffraction (Malvern Mastersizer); format: physicochemical
From the text: For pharmaceutical compositions suitable and/or adapted for inhaled administration, it is preferred that the compound or salt of formula (I) is in a particle-size-reduced form, and more preferably the size-reduced form is obtained or obtainable by micronisation. Micronisation usually involves subjecting the compound/salt to collisional and abrasional forces in a fast-flowing circular or spiral/vortex-shaped airstream often including a cyclone component. The preferable particle size (e.g. D50 value) of the size-reduced (e.g. micronised) compound or salt is about 0.5 to about 10 microns, e.g. about 1 to about 5 microns (e.g. as measured using laser diffraction). For example, it is preferable for the compound or salt of formula (I to have a particle size defined by: a D10 of about 0.3 to about 3 microns (e.g. about 1 micron), and/or a D50 of about 1 to about 5 microns (e.g. about 2-5 or about 2-3 microns), and/or a D90 of about 2 to about 20 microns or about 3 to about 10 microns (e.g. about 5-8 or about 5-6 microns); for example as measured using laser diffraction. The laser diffraction measurement can use a dry method (suspension of compound/salt in airflow crosses laser beam) or a wet method [suspension of compound/salt in liquid dispersing medium, such as isooctane or (e.g. if compound soluble in isooctane) 0.1% Tween 80 in water, crosses laser beam]. With laser diffraction, particle size is preferably calculated using the Fraunhofer calculation; and/or preferably a Malvern Mastersizer or Sympatec apparatus is used for measurement.
Particle size analysis of Example 518 micronised material from Procedure 2, using laser diffraction measurement with Malvern Mastersizer longbed version, dispersing medium 0.1% Tween 80 in water, stir rate 1500 rpm, 3 mins sonification prior to final dispersion and analysis, 300 RF Reverse Fourier) lens, Fraunhofer calculation with Malvern software: • material from collection vessel: D10=0.97 microns, D50=3.86 microns, D90=12.64 microns. • material from inside walls of cyclone: D10=0.95 microns, D50=3.42 microns, D90=9.42 microns.

[3] = system: LPS-induced pulmonary neutrophilia and emetic episodes in the conscious ferret; test: In Vivo Assay 4: Therapeutic Index of PDE4 inhibitors in the conscious ferret (LPS neutrophilia and emesis)
Protocol: PDE4 inhibitors are prepared for oral (p.o.) administration by dissolving in a fixed volume (1 ml) of acetone and then adding cremophor to 20% of the final volume. Acetone is evaporated by directing a flow of nitrogen gas onto the solution. Once the acetone is removed, the solution is made up to final volume with distilled water. LPS is dissolved in phosphate buffered saline.
Male ferrets (Mustela Pulorius Furo, weighing 1-2 kg) are transported and allowed to acclimatise for not less than 7 days. The diet comprises SDS diet C pelleted food given ad lib with Whiskers™ cat food given 3 times per week. The animals are supplied with pasteurised animal grade drinking water changed daily.
PDE4 inhibitors are administered orally (p.o.), using a dose volume of 1 ml/kg. Ferrets are fasted overnight but allowed free access to water. The animals are orally dosed with vehicle or PDE 4 inhibitor using a 15 cm dosing needle that is passed down the back of the throat into the oesophagus. After dosing, the animals are returned to holding cages fitted with perspex doors to allow observation, and given free access to water. The animals are constantly observed and any emetic episodes (retching and vomiting) or behavioural changes are recorded. The animals are allowed access to food 60-90 minutes after p.o. dosing.
Thirty minutes after oral dosing with compound or vehicle control, the ferrets are placed into sealed perspex containers and exposed to an aerosol of LPS (30 μg/ml) for 10 minutes. Aerosols of LPS are generated by a nebuliser (DeVilbiss, USA) and this is directed into the perspex exposure chamber. Following a 10-minute exposure period, the animals are returned to the holding cages and allowed free access to water, and at a later stage, food. General observation of the animals continues for a period of at least 2.5 hours post oral dosing. All emetic episodes and behavioural changes are recorded.
Six hours after LPS exposure the animals are killed by overdose of sodium pentobarbitone administered intraperitoneally. […] From this, the total number of neutrophils in the BAL sample is determined. […]

[4] = micronised material Procedure 2, material from collection vessel
[5] = micronised material Procedure 2, material from inside walls of cyclone

T1 sequence (Q07343 1-564 isoform Q07343-2): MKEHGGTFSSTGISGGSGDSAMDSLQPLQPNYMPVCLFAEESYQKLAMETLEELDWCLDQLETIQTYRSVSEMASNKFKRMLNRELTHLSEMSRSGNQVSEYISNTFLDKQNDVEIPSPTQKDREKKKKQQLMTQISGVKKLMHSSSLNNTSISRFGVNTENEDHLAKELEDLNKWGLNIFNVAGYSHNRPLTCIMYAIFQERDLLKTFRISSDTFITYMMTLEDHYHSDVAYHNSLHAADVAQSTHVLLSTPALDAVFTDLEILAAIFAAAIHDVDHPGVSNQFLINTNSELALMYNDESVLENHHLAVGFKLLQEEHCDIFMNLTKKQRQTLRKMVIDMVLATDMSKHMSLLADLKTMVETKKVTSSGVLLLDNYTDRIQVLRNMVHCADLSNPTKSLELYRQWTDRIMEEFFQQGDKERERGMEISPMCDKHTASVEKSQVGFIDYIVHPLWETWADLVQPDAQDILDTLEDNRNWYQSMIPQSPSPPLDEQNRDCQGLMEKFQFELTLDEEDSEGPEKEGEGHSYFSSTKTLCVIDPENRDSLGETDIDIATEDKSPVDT

Compound	IC50 [1] [nM]	also measured
CCn1ncc2c(NC3CCOCC3)c(C(=O)NCc3ccc(C)c(C)c3)cnc21 [Example 518, N-[(3,4-dimethylphenyl)methyl]-1-ethyl-4-(tetrahydro-2H-pyran-4-ylamino)-1H-pyrazolo[3,4-b]pyridine-5-carboxamide]	0.1 to 6.31	particle size D10 [2, 4]: 0.97 microns; particle size D50 [2, 4]: 3.86 microns; particle size D90 [2, 4]: 12.64 microns; particle size D10 [2, 5]: 0.95 microns; particle size D50 [2, 5]: 3.42 microns; particle size D90 [2, 5]: 9.42 microns
CCn1ncc2c(NC3CCC(=O)CC3)c(C(=O)NCc3cccc(Cl)c3Cl)cnc21 [Example 677, N-[(2,3-Dichlorophenyl)methyl]-1-ethyl-4-[(4-oxocyclohexyl)amino]-1H-pyrazolo[3,4-b]pyridine-5-carboxamide]	0.1 to 6.31	–
CCn1ncc2c(NC3CCC(=O)CC3)c(C(=O)NCc3ccc(C)c(Cl)c3)cnc21 [Example 678, N-[(3-Chloro-4-methylphenyl)methyl]-1-ethyl-4-[(4-oxocyclohexyl)amino]-1H-pyrazolo[3,4-b]pyridine-5-carboxamide]	0.1 to 6.31	–
CCn1ncc2c(NC3CCC(=O)CC3)c(C(=O)NCc3ccc(Cl)cc3C)cnc21 [Example 679, N-[(4-Chloro-2-methylphenyl)methyl]-1-ethyl-4-[(4-oxocyclohexyl)amino]-1H-pyrazolo[3,4-b]pyridine-5-carboxamide]	0.1 to 6.31	–
CCn1ncc2c(NC3CCC(=NO)CC3)c(C(=O)NCc3ccc(C)cc3C)cnc21 (centres unmarked) [Example 680, N-[(2,4-Dimethylphenyl)methyl]-1-ethyl-4-{[4-(hydroxyimino)cyclohexyl]amino}-1H-pyrazolo[3,4-b]pyridine-5-carboxamide]	0.1 to 6.31	–
CCn1ncc2c(NC3CCC(=NO)CC3)c(C(=O)NCc3ccc(C)c(C)c3)cnc21 (centres unmarked) [Example 681, N-[(3,4-dimethylphenyl)methyl]-1-ethyl-4-{[4-(hydroxyimino)cyclohexyl]amino}-1H-pyrazolo[3,4-b]pyridine-5-carboxamide]	0.1 to 6.31	–
CCn1ncc2c(NC3CCC(=NO)CC3)c(C(=O)NCc3cccc(Cl)c3Cl)cnc21 (centres unmarked) [Example 682, N-[(2,3-Dichlorophenyl)methyl]-1-ethyl-4-{[4-(hydroxyimino)cyclohexyl]amino}-1H-pyrazolo[3,4-b]pyridine-5-carboxamide]	0.1 to 6.31	–
CCn1ncc2c(NC3CCC(=NO)CC3)c(C(=O)NCc3ccc(C)c(Cl)c3)cnc21 (centres unmarked) [Example 683, N-[(3-Chloro-4-methylphenyl)methyl]-1-ethyl-4-{[4-(hydroxyimino)cyclohexyl]amino}-1H-pyrazolo[3,4-b]pyridine-5-carboxamide]	0.1 to 6.31	–
CCn1ncc2c(NC3CCC(=NO)CC3)c(C(=O)NCc3ccc(Cl)cc3C)cnc21 (centres unmarked) [Example 684, N-[(4-Chloro-2-methylphenyl)methyl]-1-ethyl-4-{[4-(hydroxyimino)cyclohexyl]amino}-1H-pyrazolo[3,4-b]pyridine-5-carboxamide]	0.1 to 6.31	–
CCn1ncc2c(NC3CCC(=NO)CC3)c(C(=O)NCc3ccc(OC(F)F)cc3)cnc21 (centres unmarked) [Example 685, N-({4-[(Difluoromethyl)oxy]phenyl}methyl)-1-ethyl-4-{[4-(hydroxyimino)cyclohexyl]amino}-1H-pyrazolo[3,4-b]pyridine-5-carboxamide]	0.1 to 6.31	–
CCn1ncc2c(NC3CCC(=NO)CC3)c(C(=O)NCc3ccc(C(F)(F)F)cc3)cnc21 (centres unmarked) [Example 686, 1-Ethyl-4-{[4-(hydroxyimino)cyclohexyl]amino}-N-{[4-(trifluoromethyl)phenyl]methyl}-1H-pyrazolo[3,4-b]pyridine-5-carboxamide]	0.1 to 6.31	–
O=C(Nc1c(Cl)cncc1Cl)c1ccc(OC(F)F)c(OCC2CC2)c1 [roflumilast]	–	Therapeutic index (TI), ferret Assay 4 ([3]; D20 emesis / D50 neutrophilia, ferret p.o.): 1.02; D20 for emesis ([3]; p.o., ferret, dose giving 20% incidence of emesis): 0.5 mg/kg; D50 for neutrophilia ([3]; p.o., ferret, dose giving 50% inhibition of LPS-induced pulmonary neutrophilia): 0.49 mg/kg
